Data published in EP0241232A1, “Isoxazolylethanol derivatives” (SHIONOGI SEIYAKU KABUSHIKI KAISHA, priority 1986, dated 1987).

System: Candida albicans KE-2
Test: Inhibition test against pseudomycelium formation of Candida albicans
Type: cell-based
Conditions: KE2, minimum effective concentration preventing typical pseudomycelium formation, Eagle-MEM + 20 % calf serum, 18 hours at 37 °C, read-out: Inhibitory Concentration of Pseudo-myselium Formation
Procedure: Candida albicans KE-2 was inoculated to Eagle-MEM medium (Nissan 2 made by Nissui Seiyaku, Ltd.) supplemented with 20 % calf serum so that its final inoculum of yeast cell might be 1 x 10^6 yeast cells per milliliter. The test compounds were added thereon in two fold dilution series. After incubation for 18 hours at 37 °C, the fungal growth in each drug concentration was smeared and fixed on a slide glass, and the presence or absence of the pseudomycelium formation was examined by a microscope following Giemsa staining. Minimum effective concentration was defined as the lowest concentration of the compound which prevented typical pseudomycelium formation.

Row | Structure (SMILES) | minimal effective concentration [µg/mL]
1 | OC(Cn1cncn1)(c1ccc(Cl)cc1)c1ccon1 (stereo not drawn) [Ia - 2] | 0.04
2 | OC(Cn1cncn1)(c1ccon1)c1ccc(Cl)cc1Cl (stereo not drawn) [Ia - 3] | 0.02
3 | OC(Cn1cncn1)(c1ccon1)c1ccc(F)cc1F (stereo not drawn) [Ia - 4] | 0.16

System: Candida albicans KE-2
Test: Therapeutic effect against experimental candidiasis in mice
Type: in vivo
Conditions: KE2, po, 120 h, mouse survival ratio on the 5th day after infection, Jcl-ICR female mouse, 50 mg/kg orally three times (0, 4, 24 hours)
Procedure: After Candida albicans KE-2 was incubated on Sabouraud's glucose agar at 28 °C for 48 hr., it was suspended in Sabouraud's glucose broth and the cells ([…]) were injected to a tail vein of Jcl-ICR female mouse (4 weeks age; weight : 18 - 20 g). A suspension of the test compound in 2 % gum arabic was orally administered three times, immediately after infection of the yeast ( 0 hour), after 4 hours and after 24 hours, as a dosage of 50 mg/kg. Non-treated group was used as control. Each eight mice per group was used in control group and treated group. All the mice in control group died within 48 hr. after infection. Therapeutic effect of the test compound was judged by mouse survival ratio on the 5th day after infection.

Row | Structure (SMILES) | responders at 50 mg/kg [%]
4 | OC(Cn1cncn1)(c1ccc(Cl)cc1)c1ccon1 (stereo not drawn) [Ia - 2] | 100
5 | OC(Cn1cncn1)(c1ccon1)c1ccc(Cl)cc1Cl (stereo not drawn) [Ia - 3] | 100
6 | OC(Cn1cncn1)(c1ccon1)c1ccc(F)cc1F (stereo not drawn) [Ia - 4] | 100

System: Puccinia coronata
Test: Control by seed-soaking: crown rust in oats
Type: in vivo
Conditions: 125 ppm
Procedure: (§1) The test compound was dissolved in 0.2 ml of acetone and suspended in demineralized distilled water containing a small amount of spreader, to a concentration of 500 ppm. The suspension was further diluted to one quarter dilution with demineralized distilled water (containing a small amount of spreader) to give a suspension in 125 ppm. All seeds of oats, wheat and cucumber were soaked in these suspensions at room temperature for an hour and then the seeds were air-dried.
(§2) The seeds as described above were sown in plastic pots (diameter : 9 cm). For rust and powdery mildews, the pots were kept in a glasshouse for 1 - 3 weeks until the seeds grew to young plants. The young oats (10 - 20 plants per pot) were inoculated by dusting with spores of Puccinia coronata, and the wheat (10 - 20 plants per pot) was also inoculated by spraying with spores of Erysiphe graminis f. sp. tritici, and the cucumber (1 plant per pot) was also inoculated by spraying with spore suspension of Sphaerotheca fuliginea. These inoculated plants were further kept in a glasshouse for 10 - 14 days until assessment. For damping-off, the treated seeds were sown in paper pots (diameter : 7.5 cm; depth : 6 cm) which contained soil infested with Rhizoctonia solani by mixing sterilized soil and pre-cultured fungus. Then the pots were kept in a humid glasshouse at 25 - 32 ^*C.
(§3) Damping-off was observed 15 days after sowing, and disease degree and control effect were obtained from the following equations. [formula] [formula] where diseased seedlings included damping-off and unemerged'seeds due to infection. For the foliar diseases, disease development was observed 10 - 14 days after inoculation of spores, and control effect was obtained by the following index.

Row | Structure (SMILES) | Control Index Crown Rust in Oats
7 | OC(Cn1cncn1)(c1ccc(Cl)cc1)c1ccon1 (stereo not drawn) [Ia - 2] | 70 (Leaves covered with symptom between 16 % and 45 % area)
8 | OC(Cn1cncn1)(c1ccon1)c1ccc(Cl)cc1Cl (stereo not drawn) [Ia - 3] | 97 (Leaves covered with symptom less than 3 % area)
9 | OC(Cn1cncn1)(c1ccon1)c1ccc(F)cc1F (stereo not drawn) [Ia - 4] | 50 (Leaves covered with symptom between 46 % and 65 % area)

Same assay, conditions: 500 ppm

Row | Structure (SMILES) | Control Index Crown Rust in Oats
10 | OC(Cn1cncn1)(c1ccc(Cl)cc1)c1ccon1 (stereo not drawn) [Ia - 2] | 100
11 | OC(Cn1cncn1)(c1ccon1)c1ccc(Cl)cc1Cl (stereo not drawn) [Ia - 3] | 100
12 | OC(Cn1cncn1)(c1ccon1)c1ccc(F)cc1F (stereo not drawn) [Ia - 4] | 97 (Leaves covered with symptom less than 3 % area)

System: Erysiphe graminis f. sp. tritici
Test: Control by seed-soaking: powdery mildew in wheat
Type: in vivo
Conditions: 125 ppm
Procedure: as §1, §2, §3

Row | Structure (SMILES) | Control Index Powdery Mildew in Wheat
13 | OC(Cn1cncn1)(c1ccc(Cl)cc1)c1ccon1 (stereo not drawn) [Ia - 2] | 100
14 | OC(Cn1cncn1)(c1ccon1)c1ccc(Cl)cc1Cl (stereo not drawn) [Ia - 3] | 70 (Leaves covered with symptom between 16 % and 45 % area)
15 | OC(Cn1cncn1)(c1ccon1)c1ccc(F)cc1F (stereo not drawn) [Ia - 4] | 50 (Leaves covered with symptom between 46 % and 65 % area)

Same assay, conditions: 500 ppm

Row | Structure (SMILES) | Control Index Powdery Mildew in Wheat
16 | OC(Cn1cncn1)(c1ccc(Cl)cc1)c1ccon1 (stereo not drawn) [Ia - 2] | 100
17 | OC(Cn1cncn1)(c1ccon1)c1ccc(Cl)cc1Cl (stereo not drawn) [Ia - 3] | 100
18 | OC(Cn1cncn1)(c1ccon1)c1ccc(F)cc1F (stereo not drawn) [Ia - 4] | 100

System: Rhizoctonia solani
Test: Control by seed-soaking: Rhizoctonia damping-off in cucumber
Type: in vivo
Conditions: 360 h, seed-soaking, 125 ppm, observed 15 days after sowing, control effect by equation, read-out: Control Index Rhizoctonia Damping-Off in Cucumber
Procedure: as §1, §2, §3

Row | Structure (SMILES) | pest or weed control at 125 ppm [%]
19 | OC(Cn1cncn1)(c1ccc(Cl)cc1)c1ccon1 (stereo not drawn) [Ia - 2] | 93
20 | OC(Cn1cncn1)(c1ccon1)c1ccc(Cl)cc1Cl (stereo not drawn) [Ia - 3] | 100
21 | OC(Cn1cncn1)(c1ccon1)c1ccc(F)cc1F (stereo not drawn) [Ia - 4] | 53

Same assay, conditions: 360 h, seed-soaking, 500 ppm, observed 15 days after sowing, control effect by equation, read-out: Control Index Rhizoctonia Damping-Off in Cucumber

Row | Structure (SMILES) | pest or weed control at 500 ppm [%]
22 | OC(Cn1cncn1)(c1ccc(Cl)cc1)c1ccon1 (stereo not drawn) [Ia - 2] | 100
23 | OC(Cn1cncn1)(c1ccon1)c1ccc(Cl)cc1Cl (stereo not drawn) [Ia - 3] | 94
24 | OC(Cn1cncn1)(c1ccon1)c1ccc(F)cc1F (stereo not drawn) [Ia - 4] | 86

System: Sphaerotheca fuliginea
Test: Control by seed-soaking: powdery mildew in cucumber
Type: in vivo
Conditions: 125 ppm
Procedure: as §1, §2, §3

Row | Structure (SMILES) | Control Index Powdery Mildew in Cucumber
25 | OC(Cn1cncn1)(c1ccc(Cl)cc1)c1ccon1 (stereo not drawn) [Ia - 2] | 70 (Leaves covered with symptom between 16 % and 45 % area)
26 | OC(Cn1cncn1)(c1ccon1)c1ccc(Cl)cc1Cl (stereo not drawn) [Ia - 3] | 50 (Leaves covered with symptom between 46 % and 65 % area)
27 | OC(Cn1cncn1)(c1ccon1)c1ccc(F)cc1F (stereo not drawn) [Ia - 4] | 50 (Leaves covered with symptom between 46 % and 65 % area)

Same assay, conditions: 500 ppm

Row | Structure (SMILES) | Control Index Powdery Mildew in Cucumber
28 | OC(Cn1cncn1)(c1ccc(Cl)cc1)c1ccon1 (stereo not drawn) [Ia - 2] | 90 (Leaves covered with symptom between 4 % and 15 % area)
29 | OC(Cn1cncn1)(c1ccon1)c1ccc(Cl)cc1Cl (stereo not drawn) [Ia - 3] | 70 (Leaves covered with symptom between 16 % and 45 % area)
30 | OC(Cn1cncn1)(c1ccon1)c1ccc(F)cc1F (stereo not drawn) [Ia - 4] | 70 (Leaves covered with symptom between 16 % and 45 % area)

System: Sphaerotheca fuliginea
Test: Control of cucumber powdery mildew by foliar spray
Type: in vivo
Conditions: foliar spray 2.0 ppm; inoculation 24 hr. after application; observed 10 days after inoculation
Procedure: The test compound was dissolved in a small amount of acetone and suspended in demineralized distilled water containing a spreader, to a concentration of 7.8 ppm and 2.0 ppm. Young cucumber plants (c.v. Tsukuba-Shiroibo) of 2-leaf stage grown in pots were sprayed sufficiently with the suspension.
Spores of Sphaerotheca fuliginea cultured in cucumber plants were collected and suspended in distilled water. Inoculation was made by spraying with the spore suspension to the test plant of 24 hr. after application of the test compound (preventive control) or 24 hr. before application (curative control).
Development of the disease was observed 10 days after inoculation and control index was obtained as described in Experiment 3.

Row | Structure (SMILES) | Control Index Preventive Effect
31 | OC(Cn1cncn1)(c1ccc(Cl)cc1)c1ccon1 (stereo not drawn) [Ia - 2] | 97 (Leaves covered with symptom less than 3 % area)
32 | OC(Cn1cncn1)(c1ccon1)c1ccc(Cl)cc1Cl (stereo not drawn) [Ia - 3] | 100
33 | OC(Cn1cncn1)(c1ccon1)c1ccc(F)cc1F (stereo not drawn) [Ia - 4] | 97 (Leaves covered with symptom less than 3 % area)

Same assay, conditions: foliar spray 2.0 ppm; inoculation 24 hr. before application; observed 10 days after inoculation

Row | Structure (SMILES) | Control Index Curative Effect
34 | OC(Cn1cncn1)(c1ccc(Cl)cc1)c1ccon1 (stereo not drawn) [Ia - 2] | 100
35 | OC(Cn1cncn1)(c1ccon1)c1ccc(Cl)cc1Cl (stereo not drawn) [Ia - 3] | 100
36 | OC(Cn1cncn1)(c1ccon1)c1ccc(F)cc1F (stereo not drawn) [Ia - 4] | 100

Same assay, conditions: foliar spray 7.8 ppm; inoculation 24 hr. after application; observed 10 days after inoculation

Row | Structure (SMILES) | Control Index Preventive Effect
37 | OC(Cn1cncn1)(c1ccc(Cl)cc1)c1ccon1 (stereo not drawn) [Ia - 2] | 100
38 | OC(Cn1cncn1)(c1ccon1)c1ccc(Cl)cc1Cl (stereo not drawn) [Ia - 3] | 100
39 | OC(Cn1cncn1)(c1ccon1)c1ccc(F)cc1F (stereo not drawn) [Ia - 4] | 100

Same assay, conditions: foliar spray 7.8 ppm; inoculation 24 hr. before application; observed 10 days after inoculation

Row | Structure (SMILES) | Control Index Curative Effect
40 | OC(Cn1cncn1)(c1ccc(Cl)cc1)c1ccon1 (stereo not drawn) [Ia - 2] | 100
41 | OC(Cn1cncn1)(c1ccon1)c1ccc(Cl)cc1Cl (stereo not drawn) [Ia - 3] | 100
42 | OC(Cn1cncn1)(c1ccon1)c1ccc(F)cc1F (stereo not drawn) [Ia - 4] | 100

System: Rhizoctonia solani
Test: Control of cucumber damping-off by soil drench
Type: in vivo
Conditions: soil drench 31 ppm, 30 ml per cup; judged 15 days after inoculation
Procedure: as §3
The test compound was dissolved in a small amount of acetone and suspended in demineralized distilled water containing a spreader, to a concentration of 125 ppm and 31 ppm. The soil sterilized by an autoclave was put into paper cups (diameter : 7.5 cm; depth : 6 cm) and cucumber seeds (c.v. : Matsukaze) were sown in the cups (10 seeds/pot). Then the soil surface was covered with the following soil containing pathogen. And then 30 ml of the formation of the test compound was applied to the soil in the cup.
Rhizoctonia solani incubated in a bran medium at 28 °C for 5 days was put into sterile soil and cultured for 24 hr. The inoculated soil was diluted with sterile soil to about 4 times volume. The soil surface in the cups containing cucumber seeds was covered with the soil containing Rhizoctonia solani.
Control effect was judged 15 days after inoculation and control percent was obtained as described in Experiment 3.

Row | Structure (SMILES) | Control [%]
43 | OC(Cn1cncn1)(c1ccc(Cl)cc1)c1ccon1 (stereo not drawn) [Ia - 2] | 100
44 | OC(Cn1cncn1)(c1ccon1)c1ccc(Cl)cc1Cl (stereo not drawn) [Ia - 3] | 100
45 | OC(Cn1cncn1)(c1ccon1)c1ccc(F)cc1F (stereo not drawn) [Ia - 4] | 100

Same assay, conditions: soil drench 125 ppm, 30 ml per cup; judged 15 days after inoculation

Row | Structure (SMILES) | Control [%]
46 | OC(Cn1cncn1)(c1ccc(Cl)cc1)c1ccon1 (stereo not drawn) [Ia - 2] | 100
47 | OC(Cn1cncn1)(c1ccon1)c1ccc(Cl)cc1Cl (stereo not drawn) [Ia - 3] | 100
48 | OC(Cn1cncn1)(c1ccon1)c1ccc(F)cc1F (stereo not drawn) [Ia - 4] | 100
